Activity calls are given as the source filed them.
Columns and labels:
[1] = target: T1, Sentrin-specific protease 1 (Homo sapiens, UniProt Q9P0U3); assay: SENP1 catalytic domain blockers, concentration series – biochemical, kinetic FRET, dose response (AID 651697); type: functional; settings: read-out: IC50_Mean
[2] = target: T1, Sentrin-specific protease 1; assay: Dose response confirmation of small molecule inhibitors of the catalytic domain of the SUMO protease, SENP1 in a FRET assay.; type: functional; settings: read-out: IC50_Mean
[3] = A549 cell cytotoxicity, dose response, cytotoxicity control, plate reader, cherry-pick, antagonist series (AID 743412); type: functional, cell-based
[4] = toxicity toward HepG2 liver cells – cell-based, plate reader, cherry-pick, antagonist series, cytotoxicity control, dose response (AID 743416); type: functional
[5] = blockers of bursicon-stimulated LGR2 cAMP reporter – cell-based, HEK293, CRE-luciferase reporter, cherry pick, set 2, dose response (AID 743343); type: functional;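 note: transfected cells were stimulated with diluted bursicon conditioned medium after compound addition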
[6] = viability loss in HepG2 hepatoma cells – cell-based, ATP luminescence, cherry-pick, activator set 2, cytotoxicity control, dose response (AID 1053143); type: functional
[7] = blockade of melanocortin 4 receptor signaling – cell-based, plate reader, cherry pick, counter-screen for LGR2 antagonist project, dose response (AID 743444); type: functional;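 note: transfected HEK 293 cells stimulated with alpha-MSH peptide; potency of inhibitors of the alpha-MSH evoked signal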
[8] = viability loss in HEK293 cells – cell-based, plate reader, cherry-picked samples, cytotoxicity control, dose response (AID 743446); type: functional
[9] = target: T2, Low molecular weight phosphotyrosine protein phosphatase (Homo sapiens, UniProt P24666); type: functional; settings: read-out: IC50_Mean
T2 sequence (P24666 whole entry): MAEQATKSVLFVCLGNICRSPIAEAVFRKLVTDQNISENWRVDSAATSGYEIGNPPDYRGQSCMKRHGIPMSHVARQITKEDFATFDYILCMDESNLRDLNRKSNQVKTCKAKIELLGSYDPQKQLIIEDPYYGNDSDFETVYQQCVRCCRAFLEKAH

[10] = target: T2, Low molecular weight phosphotyrosine protein phosphatase; type: functional; settings: read-out: IC50_Mean; remark: listed apart in the source
INS1 = assay: INS-1E survival protection against cytokine death – cell-based, luminescence, retest, dose response (AID 449756); type: functional; settings: Rattus norvegicus;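 note: cell death triggered by IL-1 beta plus TNF-alpha plus IFN-gamma mixture; protective hits raise ATP signal compared with cytokine alone wells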
Protein Wnt-3a = Protein Wnt-3a (Mus musculus, UniProt P27467); assay: antagonism of Wnt3a pathway luciferase reporter – Wnt-LIGHT cells, luminescence, selectivity assay for Gli-SUFU antagonist project, dose response (AID 651570); type: functional; settings: read-out: IC50_Mean;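 note: Wnt-LIGHT reporter cells stimulated with conditioned medium from Wnt3a-producing cells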
[11] = target: Photoreceptor-specific nuclear receptor (Homo sapiens, UniProt Q9Y5X4); type: functional, cell-based;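 note: CHO-S cells with Gal4-NCOR and VP16-NR2E3 two-hybrid luciferase reporter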
Chain of Photoreceptor-specific nuclear receptor (Q9Y5X4 whole entry, the tested form may be a part): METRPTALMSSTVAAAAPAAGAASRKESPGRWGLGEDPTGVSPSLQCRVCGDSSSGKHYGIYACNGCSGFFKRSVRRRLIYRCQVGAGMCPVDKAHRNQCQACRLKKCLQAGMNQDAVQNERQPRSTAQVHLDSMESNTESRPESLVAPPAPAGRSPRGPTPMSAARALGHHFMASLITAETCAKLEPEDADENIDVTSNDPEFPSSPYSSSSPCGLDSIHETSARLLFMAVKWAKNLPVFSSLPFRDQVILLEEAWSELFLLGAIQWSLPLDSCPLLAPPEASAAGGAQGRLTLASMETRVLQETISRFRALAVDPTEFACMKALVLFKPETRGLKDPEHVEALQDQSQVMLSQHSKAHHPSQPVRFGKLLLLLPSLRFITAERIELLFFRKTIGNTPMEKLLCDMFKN

[12] = target: ADP-ribosylation factor GTPase-activating protein 1 (Rattus norvegicus, UniProt Q62848); assay: Fluorescence polarization-based biochemical high throughput dose response screening assay to identify inhibitors of ADP-ribosylation factor GTPase activating protein 1 (ARFGAP1).; type: functional
Chain of ADP-ribosylation factor GTPase-activating protein 1 (Q62848 whole entry, the tested form may be a part): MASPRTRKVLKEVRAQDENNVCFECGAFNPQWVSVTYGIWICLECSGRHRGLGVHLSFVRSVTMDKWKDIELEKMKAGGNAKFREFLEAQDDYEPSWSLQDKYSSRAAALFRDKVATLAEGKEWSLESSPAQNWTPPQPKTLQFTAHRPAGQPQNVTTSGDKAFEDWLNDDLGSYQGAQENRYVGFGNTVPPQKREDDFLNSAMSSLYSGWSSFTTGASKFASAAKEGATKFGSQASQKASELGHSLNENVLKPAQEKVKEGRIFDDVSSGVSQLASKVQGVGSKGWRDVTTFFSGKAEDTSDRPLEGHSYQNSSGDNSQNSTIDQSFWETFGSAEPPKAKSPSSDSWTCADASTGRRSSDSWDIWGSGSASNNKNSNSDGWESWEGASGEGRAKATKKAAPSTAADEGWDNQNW

[13] = target: Arf-GAP with SH3 domain, ANK repeat and PH domain-containing protein 1 (Homo sapiens, UniProt Q9ULH1); type: functional;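 note: biochemical fluorescence polarization dose–response screen measuring inhibition of ASAP1; ASAP1 GAP domain stimulating GTP hydrolysis by truncated human ARF1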
Chain of Arf-GAP with SH3 domain, ANK repeat and PH domain-containing protein 1 (Q9ULH1 whole entry, the tested form may be a part): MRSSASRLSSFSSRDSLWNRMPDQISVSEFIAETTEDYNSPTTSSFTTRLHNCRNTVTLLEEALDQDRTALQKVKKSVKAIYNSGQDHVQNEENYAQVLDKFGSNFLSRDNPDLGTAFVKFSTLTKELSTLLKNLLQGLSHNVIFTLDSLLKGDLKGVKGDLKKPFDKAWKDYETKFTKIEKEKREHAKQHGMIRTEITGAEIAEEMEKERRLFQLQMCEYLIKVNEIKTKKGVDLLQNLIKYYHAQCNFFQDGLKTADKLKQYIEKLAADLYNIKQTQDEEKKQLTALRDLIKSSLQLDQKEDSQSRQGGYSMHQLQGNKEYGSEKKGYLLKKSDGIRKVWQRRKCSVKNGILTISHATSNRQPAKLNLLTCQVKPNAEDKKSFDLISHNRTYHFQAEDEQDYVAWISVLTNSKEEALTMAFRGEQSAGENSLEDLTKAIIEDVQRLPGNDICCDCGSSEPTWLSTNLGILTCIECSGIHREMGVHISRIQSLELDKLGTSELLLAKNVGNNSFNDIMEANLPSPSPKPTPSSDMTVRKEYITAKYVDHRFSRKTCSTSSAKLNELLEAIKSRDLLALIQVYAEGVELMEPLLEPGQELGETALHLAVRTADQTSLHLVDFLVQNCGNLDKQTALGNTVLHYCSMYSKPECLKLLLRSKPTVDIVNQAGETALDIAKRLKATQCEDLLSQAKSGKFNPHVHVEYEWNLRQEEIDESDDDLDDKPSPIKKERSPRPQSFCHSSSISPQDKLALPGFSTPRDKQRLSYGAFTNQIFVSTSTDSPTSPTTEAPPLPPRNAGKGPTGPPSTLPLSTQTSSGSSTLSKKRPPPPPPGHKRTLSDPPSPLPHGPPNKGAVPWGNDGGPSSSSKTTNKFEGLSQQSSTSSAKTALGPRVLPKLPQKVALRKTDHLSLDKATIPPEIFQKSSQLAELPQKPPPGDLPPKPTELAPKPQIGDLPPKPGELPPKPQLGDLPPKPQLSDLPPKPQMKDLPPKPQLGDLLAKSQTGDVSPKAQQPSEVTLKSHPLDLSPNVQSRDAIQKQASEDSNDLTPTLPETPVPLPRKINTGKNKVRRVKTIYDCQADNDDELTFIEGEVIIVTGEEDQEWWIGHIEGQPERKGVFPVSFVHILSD

[14] = target: T3, Corticotropin-releasing factor receptor 2/Corticotropin-releasing factor-binding protein (Homo sapiens, UniProt P24387+Q13324); assay: Dose Response confirmation of uHTS hits for small molecule antagonists of the CRF-binding protein and CRF-R2 receptor complex.; type: functional; settings: read-out: IC50_Mean
T3 sequence (Q13324 whole entry): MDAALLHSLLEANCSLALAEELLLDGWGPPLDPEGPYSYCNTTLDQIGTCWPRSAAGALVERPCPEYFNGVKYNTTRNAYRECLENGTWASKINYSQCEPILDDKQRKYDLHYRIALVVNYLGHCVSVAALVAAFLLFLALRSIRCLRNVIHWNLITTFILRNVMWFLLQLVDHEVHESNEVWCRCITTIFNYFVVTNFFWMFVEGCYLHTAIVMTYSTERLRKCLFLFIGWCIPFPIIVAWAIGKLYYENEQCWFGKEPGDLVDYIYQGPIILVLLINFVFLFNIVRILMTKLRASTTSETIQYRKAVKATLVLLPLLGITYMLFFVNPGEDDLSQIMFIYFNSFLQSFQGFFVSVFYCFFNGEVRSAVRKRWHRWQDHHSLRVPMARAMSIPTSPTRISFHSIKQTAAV
T3 sequence (P24387 whole entry): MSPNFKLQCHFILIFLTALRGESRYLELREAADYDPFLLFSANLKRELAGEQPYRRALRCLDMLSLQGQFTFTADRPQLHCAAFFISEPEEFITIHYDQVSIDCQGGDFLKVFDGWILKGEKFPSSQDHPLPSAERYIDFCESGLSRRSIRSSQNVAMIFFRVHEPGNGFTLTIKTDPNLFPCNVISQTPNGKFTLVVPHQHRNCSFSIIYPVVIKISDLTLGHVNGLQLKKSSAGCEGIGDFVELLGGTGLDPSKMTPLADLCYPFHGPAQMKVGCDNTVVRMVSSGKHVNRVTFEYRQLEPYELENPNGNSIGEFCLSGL

[15] = target: T3, Corticotropin-releasing factor receptor 2/Corticotropin-releasing factor-binding protein; assay: activators of CRF receptor 2 with binding protein – uHTS hits, confirmation (AID 602473); type: functional; settings: read-out: EC50_Mean
[16] = blockers of CRF-binding protein–CRF-R2 complex – cell-based, uHTS hits, 384-well, dose response (AID 651639); type: functional, Homo sapiens; settings: read-out: IC50_Mean
[17] = target: Tyrosine-protein phosphatase non-receptor type 11 (Homo sapiens, UniProt Q06124); assay: PTPN11 enzyme inhibitors – biochemical, selectivity assay for STEP inhibitor project, dose response (AID 602367); type: functional; settings: read-out: IC50_Mean
Chain of Tyrosine-protein phosphatase non-receptor type 11 (Q06124 whole entry): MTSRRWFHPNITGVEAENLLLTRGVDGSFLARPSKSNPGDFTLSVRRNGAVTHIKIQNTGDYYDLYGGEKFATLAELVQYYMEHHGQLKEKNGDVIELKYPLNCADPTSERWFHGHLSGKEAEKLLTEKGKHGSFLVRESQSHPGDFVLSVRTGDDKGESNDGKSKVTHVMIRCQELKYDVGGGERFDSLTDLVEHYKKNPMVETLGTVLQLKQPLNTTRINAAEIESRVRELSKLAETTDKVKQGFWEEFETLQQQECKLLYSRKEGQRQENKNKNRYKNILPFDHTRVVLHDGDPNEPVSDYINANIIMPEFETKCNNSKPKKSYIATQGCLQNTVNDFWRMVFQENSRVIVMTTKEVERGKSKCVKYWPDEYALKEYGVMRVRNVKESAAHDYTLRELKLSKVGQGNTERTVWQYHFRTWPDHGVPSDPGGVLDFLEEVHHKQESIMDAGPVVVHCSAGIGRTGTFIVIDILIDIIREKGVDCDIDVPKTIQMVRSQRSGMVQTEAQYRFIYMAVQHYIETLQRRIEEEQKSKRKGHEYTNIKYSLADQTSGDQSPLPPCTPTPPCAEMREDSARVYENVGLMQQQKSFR

[18] = target: Tyrosine-protein phosphatase non-receptor type 5 (Homo sapiens, UniProt P54829); assay: PTPN5 enzyme inhibition – biochemical, fluorescence intensity, uHTS hits, confirmation (AID 602372); type: functional; settings: read-out: IC50_Mean
Chain of Tyrosine-protein phosphatase non-receptor type 5 (P54829 whole entry): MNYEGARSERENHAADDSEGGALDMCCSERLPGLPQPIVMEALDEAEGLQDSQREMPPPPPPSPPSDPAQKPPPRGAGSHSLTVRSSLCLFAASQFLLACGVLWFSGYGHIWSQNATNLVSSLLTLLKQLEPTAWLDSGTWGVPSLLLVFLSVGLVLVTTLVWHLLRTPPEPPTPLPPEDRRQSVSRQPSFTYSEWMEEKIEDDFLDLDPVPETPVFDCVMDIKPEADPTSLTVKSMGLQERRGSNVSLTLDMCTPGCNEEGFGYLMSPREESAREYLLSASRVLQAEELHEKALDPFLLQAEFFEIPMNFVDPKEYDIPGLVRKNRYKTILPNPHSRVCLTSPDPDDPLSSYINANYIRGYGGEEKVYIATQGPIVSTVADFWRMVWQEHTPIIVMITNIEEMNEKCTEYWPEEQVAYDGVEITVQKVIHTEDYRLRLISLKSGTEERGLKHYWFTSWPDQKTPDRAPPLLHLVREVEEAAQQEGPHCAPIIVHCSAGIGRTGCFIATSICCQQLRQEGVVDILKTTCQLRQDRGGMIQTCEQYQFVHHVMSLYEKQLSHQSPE

[19] = target: Dual specificity protein phosphatase 3 (Homo sapiens, UniProt P51452); assay: VHR phosphatase inhibition, dose response, selectivity assay for STEP inhibitor project, biochemical (AID 602374); type: functional; settings: read-out: IC50_Mean
Chain of Dual specificity protein phosphatase 3 (P51452 whole entry): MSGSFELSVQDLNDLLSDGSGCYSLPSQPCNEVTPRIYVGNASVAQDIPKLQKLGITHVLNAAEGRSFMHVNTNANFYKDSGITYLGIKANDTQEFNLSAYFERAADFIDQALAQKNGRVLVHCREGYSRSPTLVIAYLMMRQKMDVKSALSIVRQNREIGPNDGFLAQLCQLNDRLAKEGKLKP

[20] = target: T4, Methionyl-tRNA synthetase, putative (Trypanosoma brucei brucei, UniProt Q38C91); type: functional, Trypanosoma brucei brucei strain 927/4 GUTat10.1
T4 sequence (Q38C91 whole entry): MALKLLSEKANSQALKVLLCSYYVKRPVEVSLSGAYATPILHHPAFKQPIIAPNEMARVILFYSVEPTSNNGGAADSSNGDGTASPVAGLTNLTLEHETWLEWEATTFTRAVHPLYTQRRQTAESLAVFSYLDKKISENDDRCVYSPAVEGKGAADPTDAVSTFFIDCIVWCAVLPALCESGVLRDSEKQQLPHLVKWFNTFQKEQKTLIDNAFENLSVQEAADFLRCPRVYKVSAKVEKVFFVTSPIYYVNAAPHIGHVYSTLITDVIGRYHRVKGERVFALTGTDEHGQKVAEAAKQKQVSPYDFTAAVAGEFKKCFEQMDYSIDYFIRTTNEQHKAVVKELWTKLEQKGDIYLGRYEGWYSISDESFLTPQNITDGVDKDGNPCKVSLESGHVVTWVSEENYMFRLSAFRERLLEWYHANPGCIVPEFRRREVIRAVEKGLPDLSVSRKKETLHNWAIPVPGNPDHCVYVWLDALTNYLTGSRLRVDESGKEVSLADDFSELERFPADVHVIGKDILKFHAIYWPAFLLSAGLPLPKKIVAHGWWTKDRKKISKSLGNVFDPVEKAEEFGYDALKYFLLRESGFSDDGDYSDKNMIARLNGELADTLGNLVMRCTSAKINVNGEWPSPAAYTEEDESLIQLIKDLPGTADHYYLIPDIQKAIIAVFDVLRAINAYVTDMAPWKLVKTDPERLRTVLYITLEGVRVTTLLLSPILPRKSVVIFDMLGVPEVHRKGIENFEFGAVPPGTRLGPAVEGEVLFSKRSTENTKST

[21] = Counterscreen for inhibitors of Trypanosoma brucei methionyl tRNA synthetase (MetRS): Luminescence-based cell-based high throughput dose response assay to identify compounds that are cytotoxic to Jurkat human T lymphocyte cells.; type: functional
[22] = target: T4, Methionyl-tRNA synthetase, putative; type: functional, Trypanosoma brucei brucei strain 927/4 GUTat10.1; remark: listed apart in the source
Beta-galactosidase = Beta-galactosidase (Escherichia coli, UniProt Q8VNN2); assay: Dose response counterscreen for EBI2 assay utilizing the enzyme, b-galactosidase.; type: functional
Chain of Beta-galactosidase (Q8VNN2 whole entry): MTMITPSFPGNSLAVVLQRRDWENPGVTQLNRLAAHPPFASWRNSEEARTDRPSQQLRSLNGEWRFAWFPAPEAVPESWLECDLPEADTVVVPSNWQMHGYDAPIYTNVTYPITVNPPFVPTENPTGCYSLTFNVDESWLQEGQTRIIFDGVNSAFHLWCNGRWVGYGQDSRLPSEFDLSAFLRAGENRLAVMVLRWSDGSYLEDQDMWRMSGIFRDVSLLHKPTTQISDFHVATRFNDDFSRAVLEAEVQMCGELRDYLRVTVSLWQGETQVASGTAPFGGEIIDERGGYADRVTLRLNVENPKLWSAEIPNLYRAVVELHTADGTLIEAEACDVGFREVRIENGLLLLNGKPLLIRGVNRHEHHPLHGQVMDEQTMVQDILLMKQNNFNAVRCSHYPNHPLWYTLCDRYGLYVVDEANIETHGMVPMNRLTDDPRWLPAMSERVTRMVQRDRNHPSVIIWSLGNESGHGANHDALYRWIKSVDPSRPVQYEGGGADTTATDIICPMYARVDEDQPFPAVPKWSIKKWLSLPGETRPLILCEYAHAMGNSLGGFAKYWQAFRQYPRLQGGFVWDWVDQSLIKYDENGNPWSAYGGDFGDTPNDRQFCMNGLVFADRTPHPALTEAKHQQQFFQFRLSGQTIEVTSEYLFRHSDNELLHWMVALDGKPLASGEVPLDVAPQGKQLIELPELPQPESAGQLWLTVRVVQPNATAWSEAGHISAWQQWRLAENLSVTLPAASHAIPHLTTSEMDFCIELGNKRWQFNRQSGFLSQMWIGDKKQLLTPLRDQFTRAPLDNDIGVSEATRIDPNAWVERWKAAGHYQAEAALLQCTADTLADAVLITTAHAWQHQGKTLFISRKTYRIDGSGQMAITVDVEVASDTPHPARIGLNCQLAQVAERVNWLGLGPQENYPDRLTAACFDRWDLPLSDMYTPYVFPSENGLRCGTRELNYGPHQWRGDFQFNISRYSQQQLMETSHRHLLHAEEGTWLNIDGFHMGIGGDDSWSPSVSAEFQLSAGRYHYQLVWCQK

T1 sequence (Q9P0U3 whole entry, the tested form may be a part): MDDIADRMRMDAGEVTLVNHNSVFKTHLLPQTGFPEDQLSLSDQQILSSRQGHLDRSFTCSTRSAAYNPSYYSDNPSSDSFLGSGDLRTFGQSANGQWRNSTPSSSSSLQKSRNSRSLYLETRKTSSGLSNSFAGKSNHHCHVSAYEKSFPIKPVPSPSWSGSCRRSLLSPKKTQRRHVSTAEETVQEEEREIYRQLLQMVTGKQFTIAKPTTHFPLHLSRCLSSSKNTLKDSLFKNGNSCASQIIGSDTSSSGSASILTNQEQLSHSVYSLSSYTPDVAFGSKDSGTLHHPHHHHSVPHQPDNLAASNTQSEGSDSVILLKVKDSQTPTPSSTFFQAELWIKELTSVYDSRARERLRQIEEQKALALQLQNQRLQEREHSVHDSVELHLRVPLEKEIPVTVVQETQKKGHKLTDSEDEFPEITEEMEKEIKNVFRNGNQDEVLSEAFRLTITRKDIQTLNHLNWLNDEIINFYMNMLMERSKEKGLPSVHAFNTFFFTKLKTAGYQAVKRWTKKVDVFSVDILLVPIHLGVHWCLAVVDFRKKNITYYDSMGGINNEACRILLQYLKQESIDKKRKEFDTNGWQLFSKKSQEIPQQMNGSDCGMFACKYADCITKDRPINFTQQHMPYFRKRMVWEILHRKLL

For `COc1cc(NC2=Nc3cccc4cccc2c34)cc(OC)c1OC`, the IC50 [1] was 68.8 µM (inactive) and the IC50 [2] was 19.9 µM (active).
In the case of `O=C(Nc1nc2cc3c(cc2s1)OCCO3)c1cccs1`, the AC50 [3] is reported as 28 µM (active), the AC50 [4] is reported as > 52 µM (inactive) and the AC50 [5] is reported as 2.01 µM (active). For the same compound, the AC50 [6] was 26 µM (active), the AC50 [7] was 3.84 µM (active) and the AC50 [8] was > 52 µM (inactive).
With `O=C(OCCNc1nc(-c2ccccc2)nc2ccccc12)c1ccncc1` the IC50 [9] was 24.6 µM (inactive) and the IC50 [10] was 11.8 µM (active).
For `CCN(CC)C(=O)c1ccc(S(=O)(=O)N2CCC(c3nc4ccccc4s3)CC2)cc1`, the AC50 (INS1) was 5.69 µM (active) and the IC50 (Protein Wnt-3a) was 39.7 µM (inactive).
In the case of `FC(F)Sc1ccc(NC(=S)N2CCN(c3ccccn3)CC2)cc1`, the IC50 [11] is reported as 2.52 µM (active).
For `Cc1ccc2nc(SCC(=O)N3CCC(Cc4ccccc4)CC3)nc(=O)n2c1`, the IC50 [12] was 26.9 µM (inactive) and the IC50 [13] was 32.7 µM (inactive).
With `O=S(=O)(Nc1nc2ccccc2s1)c1ccc(Cl)s1` the AC50 (INS1) was 31.8 µM (active), the IC50 [14] was 6.02 µM (active) and the EC50 [15] was > 53 µM (inactive). The IC50 [16] was 8.22 µM (active).
With `Cc1ccc(S(=O)(=O)c2cnc3ccc(Cl)cc3c2O)cc1` the IC50 [17] was 14.5 µM (active), the IC50 [18] was 39.1 µM (inactive) and the IC50 [19] was 26.9 µM (inactive). The IC50 [20] was 119 µM (inactive), the IC50 [21] was 83.4 µM (inactive) and the IC50 [22] was 4.9 µM (active).
With `CCOC(=O)c1ccc(S(=O)(=O)N2CCN(C(=O)c3cc4ccccc4o3)CC2)cc1` the IC50 (Beta-galactosidase) was > 80 µM (inactive).
